The series is described as follows: Fractional release of drug from tablets into stirred aqueous solution, measured by uv/vis spectroscopy. Format: physicochemical. As to conditions: 150 mg tablets without binders or excipients, pH 7.0 water, stirred at 100 rpm (FIG. 1).

Counter-ions that a name gives are not always drawn.

Results on one compound are retold here after patent US20100105637A1, “Drug-surfactant complexes for sustained release” (priority 2005, published 2010).

Experimental: The tablets were placed into pH 7.0 water and stirred with a stirrer at 100 rpm. Fractional release was determined by uv/vis spectroscopy of the aqueous solution at 278 nm to measure the concentration of diltiazem in solution.
The tablets were placed in pH 7.0 water and stirred at 100 rpm, and fractional release was measured as above.
The drug-bile complex was pressed into tablets without any binders or excipients as in Example 1.

Turning to `COc1ccc([C@@H]2Sc3ccccc3N(CCN(C)C)C(=O)[C@@H]2OC(C)=O)cc1` [diltiazem-HCl, Diltiazem-HCl], the “amount of diltiazem released at the first time point” value is “all”.
